In ChEMBL document CHEMBL1150610, “Diterpenoids from Isodon adenantha” (J Nat Prod, 2002) one finds IC50 data, which are given here for three compounds.

≈ marks a conversion by molar mass, not a printed value.

The subject of the test is K562. As to the kind of experiment: Cytotoxicity against human K562 cells. Type of test: functional, cell-based.

As a reminder, the IC50 is the concentration at which inhibition is half-maximal. Read a high IC50 as weaker potency in that assay. The compound `C=C1C(=O)[C@]23C[C@H]1C[C@H](OC(C)=O)[C@H]2[C@]1(C)[C@@H](OC(C)=O)C[C@H](O)C(C)(C)[C@H]1[C@@H](O)[C@@H]3OC(C)=O` [WEISIENSIN A] returned a 50% inhibitory concentration (IC50) of 3.3 µg/mL (≈ 6.7 µM).

On to `C=C1C(=O)[C@]23C[C@H]1C[C@H](O)[C@H]2[C@@]1(C)[C@H](C[C@@H]3OC(C)=O)C(C)(C)[C@@H](OC(C)=O)C[C@@H]1O` [ADENANTHIN F], for which 3.6 µg/mL (≈ 8.28 µM) corresponded to half-maximal inhibition (IC50). The figure for `C=C1C(=O)[C@]23C[C@H]1C[C@H](OC(C)=O)[C@H]2[C@]1(C)[C@@H](OC(C)=O)C[C@H](O)C(C)(C)[C@H]1C[C@@H]3OC(C)=O` [ADENANTHIN C] is 3.3 µg/mL (≈ 6.92 µM).
